#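 How tested: cells in 96-well plates exposed to compound for 48 hours at five concentrations. GI50: concentration for 50% inhibition of growth.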 Calls of active or inactive are those of the source. Rule as the data show it: active = GI50 up to about 1.1 µM and inactive = higher.
# What was measured:
# Test in all cases: DTP human tumour cell line panel, 48 h
# 786-0 = tested on: 786-0
# A549 = tested on: A549
# ACHN = tested on: ACHN
# BT-549 = tested on: BT-549
# CAKI-1 = tested on: CAKI-1
# CCRF-CEM = tested on: CCRF-CEM
# COLO 205 = tested on: COLO 205
# DU-145 = tested on: DU-145
# EKVX = tested on: EKVX
# HCC 2998 = tested on: HCC 2998
# HCT-116 = tested on: HCT-116
# HCT-15 = tested on: HCT-15
# HL-60 = tested on: HL-60
# HOP-62 = tested on: HOP-62
# HOP-92 = tested on: HOP-92
# HT-29 = tested on: HT-29
# Hs-578T = tested on: Hs-578T
# IGROV-1 = tested on: IGROV-1
# K562 = tested on: K562
# KM12 = tested on: KM12
# LOX IMVI = tested on: LOX IMVI
# M14 = tested on: M14
# MCF7 = tested on: MCF7
# MDA-MB-231 = tested on: MDA-MB-231
# MDA-MB-435 = tested on: MDA-MB-435
# MDA-N = tested on: MDA-N
# MOLT-4 = tested on: MOLT-4
# Malme-3M = tested on: Malme-3M
# NCI-H226 = tested on: NCI-H226
# NCI-H23 = tested on: NCI-H23
# NCI-H460 = tested on: NCI-H460
# NCI/ADR-RES = tested on: NCI/ADR-RES
# OVCAR-3 = tested on: OVCAR-3
# OVCAR-4 = tested on: OVCAR-4
# OVCAR-5 = tested on: OVCAR-5
# OVCAR-8 = tested on: OVCAR-8
# PC-3 = tested on: PC-3
# RPMI-8226 = tested on: RPMI-8226
# RXF 393 = tested on: RXF 393
# SF-268 = tested on: SF-268
# SF-295 = tested on: SF-295
# SF-539 = tested on: SF-539
# SK-MEL-28 = tested on: SK-MEL-28
# SK-MEL-2 = tested on: SK-MEL-2
# SK-MEL-5 = tested on: SK-MEL-5
# SK-OV-3 = tested on: SK-OV-3
# SN12C = tested on: SN12C
# SNB-19 = tested on: SNB-19
# SR = tested on: SR
# SW-620 = tested on: SW-620
# T47D = tested on: T47D
# TK-10 = tested on: TK-10
# U-251 = tested on: U-251
# UACC-257 = tested on: UACC-257
# UACC-62 = tested on: UACC-62
# UO-31 = tested on: UO-31
# NCI-H522 = tested on: NCI-H522
# SNB-75 = tested on: SNB-75
structure (smiles),measurement,setting,value
COc1cc2c(cc1OC)C(=O)/C(=C/c1ccc(O)cc1)CC2,GI50,786-0,> 10 µM (inactive)
same,GI50,A549,> 10 µM (inactive)
same,GI50,ACHN,> 10 µM (inactive)
same,GI50,BT-549,> 10 µM (inactive)
same,GI50,CAKI-1,5.82 µM (inactive)
same,GI50,CCRF-CEM,1.97 µM (inactive)
same,GI50,COLO 205,> 10 µM (inactive)
same,GI50,DU-145,> 10 µM (inactive)
same,GI50,EKVX,> 10 µM (inactive)
same,GI50,HCC 2998,> 10 µM (inactive)
same,GI50,HCT-116,> 10 µM (inactive)
same,GI50,HCT-15,> 10 µM
same,GI50,HL-60,7.31 µM (inactive)
same,GI50,HOP-62,> 10 µM (inactive)
same,GI50,HOP-92,> 10 µM (inactive)
same,GI50,HT-29,> 10 µM (inactive)
same,GI50,Hs-578T,> 10 µM (inactive)
same,GI50,IGROV-1,> 10 µM (inactive)
same,GI50,K562,> 10 µM (inactive)
same,GI50,KM12,> 10 µM (inactive)
same,GI50,LOX IMVI,> 10 µM (inactive)
same,GI50,M14,> 10 µM (inactive)
same,GI50,MCF7,> 10 µM (inactive)
same,GI50,MDA-MB-231,> 10 µM (inactive)
same,GI50,MDA-MB-435,> 10 µM (inactive)
same,GI50,MDA-N,> 10 µM (inactive)
same,GI50,MOLT-4,> 10 µM (inactive)
same,GI50,Malme-3M,> 10 µM (inactive)
same,GI50,NCI-H226,> 10 µM (inactive)
same,GI50,NCI-H23,> 10 µM (inactive)
same,GI50,NCI-H460,> 10 µM (inactive)
same,GI50,NCI/ADR-RES,> 10 µM (inactive)
same,GI50,OVCAR-3,> 10 µM (inactive)
same,GI50,OVCAR-4,> 10 µM (inactive)
same,GI50,OVCAR-5,> 10 µM (inactive)
same,GI50,OVCAR-8,> 10 µM (inactive)
same,GI50,PC-3,> 10 µM (inactive)
same,GI50,RPMI-8226,> 10 µM (inactive)
same,GI50,RXF 393,> 10 µM (inactive)
same,GI50,SF-268,> 10 µM (inactive)
same,GI50,SF-295,> 10 µM (inactive)
same,GI50,SF-539,> 10 µM (inactive)
same,GI50,SK-MEL-28,> 10 µM (inactive)
same,GI50,SK-MEL-2,> 10 µM (inactive)
same,GI50,SK-MEL-5,> 10 µM (inactive)
same,GI50,SK-OV-3,> 10 µM (inactive)
same,GI50,SN12C,> 10 µM (inactive)
same,GI50,SNB-19,> 10 µM (inactive)
same,GI50,SR,> 10 µM (inactive)
same,GI50,SW-620,> 10 µM (inactive)
same,GI50,T47D,> 10 µM (inactive)
same,GI50,TK-10,> 10 µM (inactive)
same,GI50,U-251,> 10 µM (inactive)
same,GI50,UACC-257,> 10 µM (inactive)
same,GI50,UACC-62,> 10 µM (inactive)
same,GI50,UO-31,2.34 µM (inactive)
Cc1c2ccccc2c(C)n2c1nc1cc(Cl)c(Cl)cc12,GI50,786-0,6.47 µM (inactive)
same,GI50,A549,> 10 µM (inactive)
same,GI50,ACHN,> 10 µM (inactive)
same,GI50,BT-549,> 10 µM (inactive)
same,GI50,CAKI-1,> 10 µM (inactive)
same,GI50,CCRF-CEM,> 10 µM (inactive)
same,GI50,COLO 205,> 10 µM (inactive)
same,GI50,DU-145,> 10 µM (inactive)
same,GI50,EKVX,> 10 µM (inactive)
same,GI50,HCC 2998,> 10 µM (inactive)
same,GI50,HCT-116,> 10 µM (inactive)
same,GI50,HCT-15,> 10 µM
same,GI50,HL-60,3.88 µM (inactive)
same,GI50,HOP-62,> 10 µM (inactive)
same,GI50,HT-29,> 10 µM (inactive)
same,GI50,Hs-578T,> 10 µM (inactive)
same,GI50,IGROV-1,> 10 µM (inactive)
same,GI50,K562,> 10 µM (inactive)
same,GI50,KM12,> 10 µM (inactive)
same,GI50,LOX IMVI,2.78 µM (inactive)
same,GI50,M14,> 10 µM (inactive)
same,GI50,MCF7,1.59 µM (inactive)
same,GI50,MDA-MB-231,> 10 µM (inactive)
same,GI50,MDA-MB-435,> 10 µM (inactive)
same,GI50,MDA-N,> 10 µM (inactive)
same,GI50,MOLT-4,2.93 µM (inactive)
same,GI50,Malme-3M,0.166 µM (active)
same,GI50,NCI-H226,0.0296 µM (active)
same,GI50,NCI-H23,> 10 µM (inactive)
same,GI50,NCI-H460,4.04 µM (inactive)
same,GI50,NCI-H522,5.81 µM (inactive)
same,GI50,NCI/ADR-RES,0.172 µM (active)
same,GI50,OVCAR-3,0.163 µM (active)
same,GI50,OVCAR-4,> 10 µM (inactive)
same,GI50,OVCAR-5,> 10 µM (inactive)
same,GI50,OVCAR-8,> 10 µM (inactive)
same,GI50,PC-3,> 10 µM (inactive)
same,GI50,RPMI-8226,8.83 µM (inactive)
same,GI50,RXF 393,> 10 µM (inactive)
same,GI50,SF-268,> 10 µM (inactive)
same,GI50,SF-295,8.65 µM (inactive)
same,GI50,SF-539,> 10 µM (inactive)
same,GI50,SK-MEL-28,> 10 µM (inactive)
same,GI50,SK-MEL-2,> 10 µM (inactive)
same,GI50,SK-MEL-5,> 10 µM (inactive)
same,GI50,SK-OV-3,> 10 µM (inactive)
same,GI50,SN12C,> 10 µM (inactive)
same,GI50,SNB-19,> 10 µM (inactive)
same,GI50,SNB-75,3.8 µM (inactive)
same,GI50,SR,> 10 µM (inactive)
same,GI50,SW-620,> 10 µM (inactive)
same,GI50,T47D,> 10 µM (inactive)
same,GI50,TK-10,> 10 µM (inactive)
same,GI50,U-251,> 10 µM (inactive)
same,GI50,UACC-257,> 10 µM (inactive)
same,GI50,UACC-62,> 10 µM (inactive)
COC(=O)C1=Nc2c(C)nn(-c3ccccc3)c2N=C(c2ccc(C)cc2)C1,GI50,786-0,> 10 µM (inactive)
same,GI50,A549,> 10 µM (inactive)
same,GI50,ACHN,> 10 µM (inactive)
same,GI50,BT-549,> 10 µM (inactive)
same,GI50,CAKI-1,> 10 µM (inactive)
same,GI50,COLO 205,> 10 µM (inactive)
same,GI50,DU-145,> 10 µM (inactive)
same,GI50,HCC 2998,> 10 µM (inactive)
same,GI50,HCT-116,> 10 µM (inactive)
same,GI50,HCT-15,> 10 µM
same,GI50,HL-60,> 10 µM (inactive)
same,GI50,HOP-62,> 10 µM (inactive)
same,GI50,HOP-92,> 10 µM (inactive)
same,GI50,HT-29,> 10 µM (inactive)
same,GI50,Hs-578T,> 10 µM (inactive)
same,GI50,IGROV-1,> 10 µM (inactive)
same,GI50,K562,> 10 µM (inactive)
same,GI50,KM12,> 10 µM (inactive)
same,GI50,LOX IMVI,> 10 µM (inactive)
same,GI50,M14,> 10 µM (inactive)
same,GI50,MCF7,> 10 µM (inactive)
same,GI50,MDA-MB-231,> 10 µM (inactive)
same,GI50,MDA-MB-435,> 10 µM (inactive)
same,GI50,MDA-N,> 10 µM (inactive)
same,GI50,MOLT-4,> 10 µM (inactive)
same,GI50,Malme-3M,> 10 µM (inactive)
same,GI50,NCI-H23,> 10 µM (inactive)
same,GI50,NCI-H522,> 10 µM (inactive)
same,GI50,NCI/ADR-RES,> 10 µM (inactive)
same,GI50,OVCAR-3,> 10 µM (inactive)
same,GI50,OVCAR-4,> 10 µM (inactive)
same,GI50,OVCAR-8,> 10 µM (inactive)
same,GI50,PC-3,> 10 µM (inactive)
same,GI50,RPMI-8226,> 10 µM (inactive)
same,GI50,SF-268,> 10 µM (inactive)
same,GI50,SF-295,> 10 µM (inactive)
same,GI50,SF-539,> 10 µM (inactive)
same,GI50,SK-MEL-28,> 10 µM (inactive)
same,GI50,SK-MEL-5,> 10 µM (inactive)
same,GI50,SK-OV-3,> 10 µM (inactive)
same,GI50,SN12C,> 10 µM (inactive)
same,GI50,SNB-19,> 10 µM (inactive)
same,GI50,SNB-75,> 10 µM (inactive)
same,GI50,SR,> 10 µM (inactive)
same,GI50,SW-620,> 10 µM (inactive)
same,GI50,T47D,> 10 µM (inactive)
same,GI50,TK-10,> 10 µM (inactive)
same,GI50,U-251,> 10 µM (inactive)
same,GI50,UACC-257,> 10 µM (inactive)
same,GI50,UACC-62,> 10 µM (inactive)
